One data set deals with RSV A2. Put plainly: RSV plaque reduction assay in Hep-G2 cells. The settings on record: human respiratory syncytial virus, HepG2, 48 h, mean of at least two experiments. It is filed as cell-based, respiratory syncytial virus (RSV). The protocol: Compounds were subjected to RSV plaque reduction assays according to the following protocol. Plaque EC50 and cell toxicity CC50 values are a mean of at least two experiments and figures are rounded to whole units.
Hep-G2 cells (ECACC, 85011430) were passaged in flasks and seeded in 24-well plates in DMEM containing antibiotics and supplemented with 10% FBS. During inoculation and subsequent incubation, cells were cultured in DMEM containing 2% FBS. 100 plaque forming unit/well of RSV (RSV A2 ECACC, 0709161v) was mixed with eight serial dilutions of compound. Subsequently, 100 μL of the virus/compound mixtures was added to confluent Hep-G2 cell monolayers. The cells and virus/compound mixtures were incubated at 37° C. in a humidified 5% CO2 incubator for 2 h prior to removal of the inoculum and addition of 1 mL of overlay (DMEM containing 2% FBS and 0.8% CMC) containing compound dilutions. The cells and were incubated at 37° C. in a humidified 5% CO2 incubator for 2 days.
Cells were washed with PBS before adding 75/25% v/v EtOH/MeOH, for 3 min. Fixative was removed and plates were washed with PBS. A pre-titrated amount of the primary antibody was added in 200 μL PBS/2% milk powder, and plates incubated for 90 min at 37° C. The plates were washed 3 times with PBS/0.05% Tween20 before addition of rabbit anti-goat horse radish peroxidase in 200 μL PBS/2% milk powder, and incubated for 1 h at 37° C. Following three wash steps with PBS/0.05% Tween20, 200 μL ready-to-use TrueBlue was added and plates were incubated at rt for 10-15 min before washing with water. After removal of water, plates were air-dried in the dark. Plates were scanned and analysed using the Immunospot S6 Macro analyser, which is equipped with BioSpot analysis software for counting immunostained plaques (virospots). Plaque counts were used to calculate % infection relative to the mean of the plaque count in the virus control wells for RSV. The EC50 value was calculated as 50% reduction in signal, respectively, by interpolation of inhibition curves fitted with a 4-parameter nonlinear regression with a variable slope in Dotmatics. Plaque EC50 and cell toxicity CC50 values are a mean of at least two experiments and figures are rounded to whole units.
In general terms: In a plaque reduction assay, fewer plaques than in the control indicate reduced infectivity or spread.

A further data set can be described thus: Cell cytotoxicity CC50. It is filed as cell-based. The note with it: human, Hep-G2 cells; mean of at least two experiments unless (n = 1).
[1] abbreviates: Hep-G2 cells, RSV A2, 2 days, read-out: RSV A2 Plaque EC50.

Where a name gives a salt, the structure may show the parent alone. Read-outs that look alike come from different tables or passages of the source.

For orientation: EC50 means the midpoint of the concentration-response curve. A word on the CC50: it is the concentration that lowers cell viability or growth by half. The low end stands for harm at low concentration, the high end for better tolerance by the cells.

In the case of `CC(C)(O)c1ccc(-c2nn3cccnc3c2C(=O)N[C@H]2N=C(c3ccccc3)c3ccccc3NC2=O)c(F)c1` [Example 20, 2-[2-Fluoro-4-(2-hydroxypropan-2-yl)phenyl]-N-[(3S)-2-oxo-5-phenyl-1,3-dihydro-1,4-benzodiazepin-3-yl]pyrazolo[1,5-a]pyrimidine-3-carboxamide], the concentration for a half-maximal effect (EC50) with RSV A2 (setting [1]) was found to be 8.7 nM. The compound further displayed a cytotoxic concentration (CC50) in “Cell cytotoxicity CC50” greater than 25 µM.

With `CC(O)c1ccc(-c2nn3cccnc3c2C(=O)N[C@H]2N=C(c3ccccc3)c3cccc(F)c3NC2=O)c(F)c1` (stereo partly drawn) [Example 17, 2-[2-Fluoro-4-(1-hydroxyethyl)phenyl]-N-[(3S)-9-fluoro-2-oxo-5-phenyl-1,3-dihydro-1,4-benzodiazepin-3-yl]pyrazolo[1,5-a]pyrimidine-3-carboxamide], the EC50 with RSV A2 (setting [1]) stood at 6.9 nM. This compound gave a cytotoxic concentration (CC50) in the data set “Cell cytotoxicity CC50” greater than 25 µM.

For `CC(C)n1cc(-c2nn3cccnc3c2C(=O)N[C@H]2N=C(c3ccccc3)c3ccccc3NC2=O)cn1` [Example 5, N-[(3S)-2-oxo-5-phenyl-1,3-dihydro-1,4-benzodiazepin-3-yl]-2-(1-propan-2-ylpyrazol-4-yl)pyrazolo[1,5-a]pyrimidine-3-carboxamide], in the data set on RSV A2 (setting [1]), the EC50 amounted to 66 nM. In the data set “Cell cytotoxicity CC50”, this compound displayed a CC50 greater than 25 µM.

Consider `CC(O)c1ccc(-c2nn3cccnc3c2C(=O)N[C@H]2N=C(c3ccccc3)c3cccc(F)c3NC2=O)c(F)c1` (single isomer, unassigned) [Example 17-1, 2-[2-Fluoro-4-[(1S*)-1-hydroxyethyl]phenyl]-N-[(3S)-9-fluoro-2-oxo-5-phenyl-1,3-dihydro-1,4-benzodiazepin-3-yl]pyrazolo[1,5-a]pyrimidine-3-carboxamide], for which, in the data set with RSV A2 (setting [1]), the EC50 came to 5.5 nM. The compound further displayed a cytotoxic concentration (CC50) in “Cell cytotoxicity CC50” greater than 2.5 µM.

In the case of `CC(C)[C@H](N)C(=O)OCc1ccc(-c2nn3cccnc3c2C(=O)N[C@H]2N=C(c3ccccc3)c3ccccc3NC2=O)c(F)c1` [Example 30, [3-Fluoro-4-(3-{[(3S)-2-oxo-5-phenyl-1,3-dihydro-1,4-benzodiazepin-3-yl]carbamoyl}pyrazolo[1,5-a]pyrimidin-2-yl)phenyl]methyl (2S)-2-amino-3-methylbutanoate hydrochloride], the 50% effective concentration (EC50) in the data set on RSV A2 (setting [1]) was 44 nM. Besides, in “Cell cytotoxicity CC50”, the cytotoxic concentration (CC50) is greater than 25 µM.

Regarding `O=C(N[C@H]1N=C(c2ccccc2)c2ccccc2NC1=O)c1c(-c2cc(CO)ccc2F)nn2cccnc12` [Example 9, 2-[2-Fluoro-5-(hydroxymethyl)phenyl]-N-[(3S)-2-oxo-5-phenyl-1,3-dihydro-1,4-benzodiazepin-3-yl]pyrazolo[1,5-a]pyrimidine-3-carboxamide], in the data set on RSV A2 (setting [1]), the EC50 is 60 nM. Also, the CC50 in “Cell cytotoxicity CC50” is greater than 25 µM.

In the case of `NC(=O)c1ccc(-c2nn3cccnc3c2C(=O)N[C@H]2N=C(c3ccccc3)c3cccc(F)c3NC2=O)c(F)c1` [Example 27, 2-(4-Carbamoyl-2-fluorophenyl)-N-[(3S)-9-fluoro-2-oxo-5-phenyl-1,3-dihydro-1,4-benzodiazepin-3-yl]pyrazolo[1,5-a]pyrimidine-3-carboxamide], the 50% effective concentration (EC50) in the data set with RSV A2 (setting [1]) was 49 nM. This compound came in with a CC50 in the data set “Cell cytotoxicity CC50” greater than 25 µM.

As for `O=C(N[C@H]1N=C(c2ccccc2)c2cccc(F)c2NC1=O)c1c(-c2cc(CO)ccc2F)nn2cccnc12` [Example 10, 2-[2-Fluoro-5-(hydroxymethyl)phenyl]-N-[(3S)-9-fluoro-2-oxo-5-phenyl-1,3-dihydro-1,4-benzodiazepin-3-yl]pyrazolo[1,5-a]pyrimidine-3-carboxamide], the EC50 in the data set with RSV A2 (setting [1]) was determined as 25 nM. The compound further yielded a 50% cytotoxic concentration (CC50) in “Cell cytotoxicity CC50” greater than 20.2 µM.

Take `O=C(N[C@H]1N=C(c2ccccc2)c2ccccc2NC1=O)c1c(-c2ccc(CCO)cc2F)nn2cccnc12` [Example 21, 2-[2-Fluoro-4-(2-hydroxyethyl)phenyl]-N-[(3S)-2-oxo-5-phenyl-1,3-dihydro-1,4-benzodiazepin-3-yl]pyrazolo[1,5-a]pyrimidine-3-carboxamide]: the EC50 in the data set with RSV A2 (setting [1]) is 42 nM. The same compound gave a half-maximal cytotoxic concentration (CC50) in “Cell cytotoxicity CC50” greater than 25 µM.

Take `O=C(N[C@H]1N=C(c2ccccc2)c2cccc(F)c2NC1=O)c1c(-c2ccc(CCO)cc2F)nn2cccnc12` [Example 22, 2-[2-Fluoro-4-(2-hydroxyethyl)phenyl]-N-[(3S)-9-fluoro-2-oxo-5-phenyl-1,3-dihydro-1,4-benzodiazepin-3-yl]pyrazolo[1,5-a]pyrimidine-3-carboxamide]: in the data set with RSV A2 (setting [1]), the EC50 worked out at 25 nM. The CC50 in the data set “Cell cytotoxicity CC50” was greater than 25 µM.

As to `CN(C)S(=O)(=O)c1ccc(-c2nn3cccnc3c2C(=O)N[C@H]2N=C(c3ccccc3)c3cccc(F)c3NC2=O)c(F)c1` [Example 25, 2-[4-(Dimethylsulfamoyl)-2-fluorophenyl]-N-[(3S)-9-fluoro-2-oxo-5-phenyl-1,3-dihydro-1,4-benzodiazepin-3-yl]pyrazolo[1,5-a]pyrimidine-3-carboxamide], in the data set on RSV A2 (setting [1]), the EC50 was 1.2 nM. This compound yielded a CC50 in the data set “Cell cytotoxicity CC50” greater than 25 µM.

In the case of `NS(=O)(=O)c1ccc(-c2nn3cccnc3c2C(=O)N[C@H]2N=C(c3ccccc3)c3cccc(F)c3NC2=O)c(F)c1` [Example 24, N-[(3S)-9-Fluoro-2-oxo-5-phenyl-1,3-dihydro-1,4-benzodiazepin-3-yl]-2-(2-fluoro-4-sulfamoylphenyl)pyrazolo[1,5-a]pyrimidine-3-carboxamide], the EC50 in the data set with RSV A2 (setting [1]) was 49 nM. The compound also returned a CC50 in “Cell cytotoxicity CC50” greater than 25 µM.

In the case of `CC(C)(O)Cc1ccc(-c2nn3cccnc3c2C(=O)N[C@H]2N=C(c3ccccc3)c3ccccc3NC2=O)c(F)c1` [Example 15, 2-[2-Fluoro-4-(2-hydroxy-2-methylpropyl)phenyl]-N-[(3S)-2-oxo-5-phenyl-1,3-dihydro-1,4-benzodiazepin-3-yl]pyrazolo[1,5-a]pyrimidine-3-carboxamide], the EC50 in the data set on RSV A2 (setting [1]) came to 32 nM. The same compound returned a CC50 in “Cell cytotoxicity CC50” greater than 25 µM.

Turning to `CC(O)c1ccc(-c2nn3cccnc3c2C(=O)N[C@H]2N=C(c3ccccc3)c3ccccc3NC2=O)c(F)c1` (stereo partly drawn) [Example 16, 2-[2-Fluoro-4-(1-hydroxyethyl)phenyl]-N-[(3S)-2-oxo-5-phenyl-1,3-dihydro-1,4-benzodiazepin-3-yl]pyrazolo[1,5-a]pyrimidine-3-carboxamide], the EC50 with RSV A2 (setting [1]) worked out at 7.6 nM. Further, in “Cell cytotoxicity CC50”, the cytotoxic concentration (CC50) was greater than 25 µM.

With `CS(=O)(=O)c1ccc(-c2nn3cccnc3c2C(=O)N[C@H]2N=C(c3ccccc3)c3ccccc3NC2=O)c(F)c1` [Example 8, 2-(2-Fluoro-4-methylsulfonylphenyl)-N-[(3S)-2-oxo-5-phenyl-1,3-dihydro-1,4-benzodiazepin-3-yl]pyrazolo[1,5-a]pyrimidine-3-carboxamide], in the data set on RSV A2 (setting [1]), the EC50 was 13 nM. The same compound gave a half-maximal cytotoxic concentration (CC50) in “Cell cytotoxicity CC50” greater than 25 µM.

In the case of `O=C(N[C@H]1N=C(c2ccccc2)c2cccc(F)c2NC1=O)c1c(-c2ccc(O)cc2F)nn2cccnc12` [Example 12, 2-(2-Fluoro-4-hydroxyphenyl)-N-[(3S)-9-fluoro-2-oxo-5-phenyl-1,3-dihydro-1,4-benzodiazepin-3-yl]pyrazolo[1,5-a]pyrimidine-3-carboxamide], in the data set on RSV A2 (setting [1]), the EC50 came out at 16 nM. Besides, the half-maximal cytotoxic concentration (CC50) in the data set “Cell cytotoxicity CC50” was greater than 25 µM.

On to `CS(=O)(=O)c1ccc(F)c(-c2nn3cccnc3c2C(=O)N[C@H]2N=C(c3ccccc3)c3cccc(F)c3NC2=O)c1` [Example 26, 2-(2-Fluoro-5-methylsulfonylphenyl)-N-[(3S)-9-fluoro-2-oxo-5-phenyl-1,3-dihydro-1,4-benzodiazepin-3-yl]pyrazolo[1,5-a]pyrimidine-3-carboxamide], for which, in the data set on RSV A2 (setting [1]), the concentration for a half-maximal effect (EC50) worked out at 61 nM. This compound showed a CC50 in “Cell cytotoxicity CC50” greater than 25 µM.

`CC(C)(O)Cc1ccc(-c2nn3cccnc3c2C(=O)N[C@H]2N=C(c3ccccc3)c3cccc(F)c3NC2=O)c(F)c1` [Example 14, 2-[2-Fluoro-4-(2-hydroxy-2-methylpropyl)phenyl]-N-[(3S)-9-fluoro-2-oxo-5-phenyl-1,3-dihydro-1,4-benzodiazepin-3-yl]pyrazolo[1,5-a]pyrimidine-3-carboxamide]: in the data set with RSV A2 (setting [1]), the EC50 is 20 nM. Also, in the data set “Cell cytotoxicity CC50”, the half-maximal cytotoxic concentration (CC50) was greater than 25 µM.

On to `CC(O)c1ccc(-c2nn3cccnc3c2C(=O)N[C@H]2N=C(c3ccccc3)c3ccccc3NC2=O)c(F)c1` (single isomer, unassigned) [Example 16-1, 2-[2-Fluoro-4-[(1S*)-1-hydroxyethyl]phenyl]-N-[(3S)-2-oxo-5-phenyl-1,3-dihydro-1,4-benzodiazepin-3-yl]pyrazolo[1,5-a]pyrimidine-3-carboxamide], for which the EC50 in the data set with RSV A2 (read-out: RSV A2 Plaque EC50, Hep-G2 cells, RSV A2, 2 days) came out at 8.2 nM. In “Cell cytotoxicity CC50”, the cytotoxic concentration (CC50) is greater than 2.5 µM.

Turning to `O=C(N[C@H]1N=C(c2ccccc2)c2ccccc2NC1=O)c1c(-c2ccc(O)cc2F)nn2cccnc12` [Example 11, 2-(2-Fluoro-4-hydroxyphenyl)-N-[(3S)-2-oxo-5-phenyl-1,3-dihydro-1,4-benzodiazepin-3-yl]pyrazolo[1,5-a]pyrimidine-3-carboxamide], the EC50 with RSV A2 (setting [1]) came out at 47 nM. In “Cell cytotoxicity CC50”, this compound registered a CC50 greater than 25 µM.
